Measurements reported in the NIST ThermoML archive (doi:10.1021/je700099w).
Numbers after ± are expanded uncertainties.

Experiments:
[1] = refractive index (Na D-line) (dimensionless); settings: 298.15 K, 101.33 kPa, Liquid
[2] = 298.15 K; 101.33 kPa; Liquid

SMILES	refractive index ([1]; Standard Abbe refractometry)	refractive index [1]	mass density [2]
CCCCCCn1cc[n+](C)c1.F[P-](F)(F)(F)(F)F [1-hexyl-3-methylimidazolium hexafluorophosphate]	–	1.41787 ± 0.0011	1293.7 ± 2.5 kg/m3
CCCCn1cc[n+](C)c1.F[P-](F)(F)(F)(F)F [1-butyl-3-methylimidazolium hexafluorophosphate]	–	1.40937 ± 0.0011	1367.3 ± 2.9 kg/m3
CCCCCCCC[n+]1ccn(C)c1.F[P-](F)(F)(F)(F)F [1-octyl-3-methylimidazolium hexafluorophosphate]	–	1.42302 ± 0.0011	1235.7 ± 2.2 kg/m3

Continued, in another order:

refractive index ([1]; Standard Abbe refractometry)	SMILES	refractive index [1]	mass density [2]
1.40797 ± 0.00075	CCCCCO [pentan-1-ol]	–	810.8 ± 0.8 kg/m3
1.38305 ± 0.00075	CCCO [propan-1-ol]	–	799.6 ± 0.8 kg/m3
1.39726 ± 0.00072	CCCCO [butan-1-ol]	–	805.6 ± 0.5 kg/m3
